This note sets out measurements from publication PMC10177926, “Leveraging the 3-Chloro-4-fluorophenyl Motif to Identify Inhibitors of Tyrosinase from Agaricus bisporus” (International Journal of Molecular Sciences, 2023).

Chain of tyrosinase from Agaricus bisporus (AbTYR) (C7FF04 2-392): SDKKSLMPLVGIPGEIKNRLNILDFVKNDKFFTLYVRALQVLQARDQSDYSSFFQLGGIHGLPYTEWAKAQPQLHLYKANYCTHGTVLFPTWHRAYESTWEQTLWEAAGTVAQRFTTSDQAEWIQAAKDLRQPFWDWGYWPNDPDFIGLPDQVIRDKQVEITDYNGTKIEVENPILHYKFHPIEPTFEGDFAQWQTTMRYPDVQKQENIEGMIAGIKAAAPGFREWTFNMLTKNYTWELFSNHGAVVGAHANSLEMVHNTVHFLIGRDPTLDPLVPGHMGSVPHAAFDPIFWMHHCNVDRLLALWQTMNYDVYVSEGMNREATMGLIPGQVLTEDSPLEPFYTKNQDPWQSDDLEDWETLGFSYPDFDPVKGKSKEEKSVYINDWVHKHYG

One data set concerns the target tyrosinase from Agaricus bisporus (AbTYR) (Agaricus bisporus, UniProt C7FF04). As to the kind of experiment: diphenolase inhibition of AbTYR (L-DOPA substrate, absorbance at 475 nm). The format is biochemical. As to conditions: diphenolase activity. As for the experimental part: Mushroom tyrosinase (EC 1.14.18.1) was supplied by Merck (Cat. No. T3824). In vitro assay was performed according to the method of Mirabile et al.. Each sample (0.05 mL) at different concentrations (0.10–200 μM) was mixed with 0.5 mL of L-DOPA solution (1.25 mM) and 0.9 mL of phosphate buffer solution (pH 6.8). After a 10 min incubation at 25 °C, 0.05 mL of an aqueous solution of the enzyme was added to the mixture. […] The inhibition rate was calculated with the following mathematical equation:Inhibition % = (A − B/A) × 100 where A = absorbance of negative control and B = absorbance of test sample. Finally, IC50 values were determined by interpolation of the dose–response curves.
For `Nn1c(SCc2ccc(F)cc2Cl)nnc1-c1ccncc1` [3c, 3-((2-Chloro-4-fluorobenzyl)thio)-5-(pyridin-4-yl)-4H-1,2,4-triazol-4-amine], the “AbTYR inhibitory effect, result in words” value is on record as “inhibitory effects dramatically disappeared”.

System in a further data set: not given
Assay: not given
Settings: not given
The term melting point denotes the temperature, or range, at which the solid turns liquid. Take `CC(C(=O)N1CCN(c2ccc(O)cc2)CC1)N1CCN(Cc2ccc(F)c(Cl)c2)CC1` (stereo not shown) [2d, 2-(4-(3-Chloro-4-fluorobenzyl)piperazin-1-yl)-1-(4-(4-hydroxyphenyl)piperazin-1-yl)propan-1-one]: the melting point was in the range of 172 to 174 °C.

`O=C(c1cc2ccccc2s1)N1CCN(Cc2ccc(F)c(Cl)c2)CC1` [1f, Benzo[b]thiophen-2-yl(4-(3-chloro-4-fluorobenzyl)piperazin-1-yl)methanone] returned a melting point of 111 to 113 °C.

`O=C(CN1CCN(Cc2ccc(F)c(Cl)c2)CC1)N1CCN(c2ccc(O)cc2)CC1` [2c, 2-(4-(3-Chloro-4-fluorobenzyl)piperazin-1-yl)-1-(4-(4-hydroxyphenyl)piperazin-1-yl)ethanone] had a melting point of 165 to 168 °C.

Regarding `c1ccc(SCSc2ccccc2)cc1` [4b, Phenylsulfanylmethylsulfanylbenzene], the melting point was 34 to 35 °C.

Compound `Nn1c(SCc2ccc(F)cc2Cl)nnc1-c1ccncc1` [3c, 3-((2-Chloro-4-fluorobenzyl)thio)-5-(pyridin-4-yl)-4H-1,2,4-triazol-4-amine] came in with a melting point of 171 to 172 °C.

In turn, `O=C(c1cc(F)ccc1C(F)(F)F)N1CCN(Cc2ccc(F)c(Cl)c2)CC1` [1e, (4-(3-Chloro-4-fluorobenzyl)piperazin-1-yl)(5-fluoro-2-(trifluoromethyl)phenyl)methanone] registered a melting point of 133 to 135 °C.

Consider `Nn1c(SCc2ccc(F)c(Cl)c2)nnc1-c1ccncc1` [3b, 3-(3-Chloro-4-fluorobenzylthio)-5-(pyridin-4-yl)-4H-1,2,4-triazol-4-amine], for which the melting point was 164 to 165 °C.

`O=C(c1ccc(Cl)cc1Cl)N1CCN(Cc2ccc(F)c(Cl)c2)CC1` [1d, (4-(3-Chloro-4-fluorobenzyl)piperazin-1-yl)(2,4-dichlorophenyl)methanone] registered a melting point of 121 to 124 °C.

With `Nn1c(SCc2ccc(F)c(Cl)c2)nnc1-c1ccccc1` [3d, 3-(3-Chloro-4-fluorobenzylthio)-5-phenyl-4H-1,2,4-triazol-4-amine], the melting point lay within 164 to 166 °C.
